Data from patent US8198285B2, “Pyrazine derivatives” (Astrazeneca AB, priority 2010, dated 2012).
Structures can show the parent of a compound that is named as a salt.

Experiments:
[1] = system: Female Sprague Dawley rats; test: Increased bone formation in rats: femur histopathology; assay type: in vivo; conditions: rat, oral
Method: For in vitro osteogenesis, human adipose-derived stem cells (hADSC) (Invitrogen, UK; catalogue number R7788-115) were seeded into 12-well plates at a density of 5000 cells/cm^2 and were cultured in a basal media of phenol red-free Dulbecco's Modified Eagles Medium (DMEM; Sigma-Aldrich, UK; catalogue number D1145) supplemented with 5% fetal bovine serum (FBS, Gibco, UK; catalogue number 10270) and 2 mM GlutaMax® (Gibco; catalogue number 35050). […] In osteogenic positive control wells, basal media was replaced with a differentiation media; phenol red-free DMEM supplemented with 5% FBS, 2 mM GlutaMax®, 50 μg/ml L-ascorbic acid (Sigma-Aldrich; Catalogue no. A8960), 5 mM β-glycerophosphate (Calbiochem, UK; catalogue number 35675), and 10 nM dexamethasone (Sigma-Aldrich; catalogue number D4902). The cultures were incubated at 37° C. in 5% CO2 with media and compound was replaced every 3-4 days over a time-course of 24 days. The formation of mineralized bone nodules was assessed during the time-course using Alizarin Red S staining. At numerous times throughout the time-course, cells were fixed with 4% paraformaldehyde (Sigma-Aldrich; catalogue number P6148) for 20 min, followed by three washes with phosphate buffered saline (PBS), without calcium chloride and magnesium chloride, (Sigma-Aldrich; catalogue number D8537), before being stained with 40 mM Alizarin Red S (Sigma-Aldrich; catalogue number A5533) (pH4.2) for 20 min at room temperature. Plates were placed on a rocking platform (50 rpm) during staining After staining, cells were washed three times with PBS, and three times with water. Cells were imaged using a Leica M165FC stereomicroscope and associated Leica Application Suite imaging software (Leica Microsystems, UK). The amount of mineralisation was quantified through the extraction of the Alizarin Red S stain from bone nodules using a cetylpyridinium chloride extraction method, previously described (Gregory et al., Analytical Biochemistry, 2004, 329: 77-84; Hwang et al., Stem Cells and Development 17: 963-970, 2008). Briefly, Alizarin Red S stain was extracted from bone nodules through the addition of 1 ml, to each well, of a cetylpyridium chloride buffer consisting of 10% cetylpyridium chloride (Sigma-Aldrich; catalogue number C0732) in 10 mM Na3PO4 (Sigma-Aldrich; catalogue number 342483) (pH7.0) and incubation for 1 h at 37° C. Following incubation, 200 μl aliquots were transferred to 96-well format and the absorbance at 550 nm was determined using a microplate spectrophotometer (SpectraMax Plus, Molecular Devices, USA). Data were expressed as mean absorbance at 550 nm±Standard error of mean (SEM). Differences between groups were examined for statistical significance using one-way analysis of variance (ANOVA) followed by Tukey's multiple comparison post hoc test. P<0.05 was considered significant. […] Experiments were performed in triplicate. […] Data are shown as mean absorbance at 550 nm and analysed using one-way ANOVA followed by Tukey's multiple comparison post hoc test: n=9; ***, P<0.001. […] Female Sprague Dawley rats (Charles River CRL:CD rats, Deal, Margate, UK) aged between 12 and 16 weeks (230-340 g) were dosed with either compound or vehicle with a 5 mL/kg volume administered by oral gavage using straight steel (75 mm, 16 gauge) oral gavage feeding needles (Vet-Tech Solutions Ltd, Congleton, UK) between 7 and 10 am each day. Compound or vehicle was dosed at various doses (including 2.5, 5, 15 or 50 mg/kg/day freebase doses equivalent to 3, 6, 18 and 59 mg/kg of tri-hydrochloride salt) once a day for seven to fourteen days. In some studies a serum sample was taken prior to treatment to measure baseline serum bone biomarkers following overnight fasting. Blood was sampled from the tail vein and serum prepared by adding the blood to serum gel blood collection tubes (Microvette 500 Z-gel, catalogue number 20.1344, Sarstedt, Leicester, UK) and centrifuging the tubes for at 13000 rpm for 5 min at 4° C. […]

female CRL:CD rats = test: Bone densitometry (pQCT) of right femur in rats; assay type: in vivo, rat; conditions: oral once a day, 14 consecutive days, 15 mg/kg
Method: (§1) For in vitro osteogenesis, human adipose-derived stem cells (hADSC) (Invitrogen, UK; catalogue number R7788-115) were seeded into 12-well plates at a density of 5000 cells/cm^2 and were cultured in a basal media of phenol red-free Dulbecco's Modified Eagles Medium (DMEM; Sigma-Aldrich, UK; catalogue number D1145) supplemented with 5% fetal bovine serum (FBS, Gibco, UK; catalogue number 10270) and 2 mM GlutaMax® (Gibco; catalogue number 35050). […] The formation of mineralized bone nodules was assessed during the time-course using Alizarin Red S staining. […] The amount of mineralisation was quantified through the extraction of the Alizarin Red S stain from bone nodules using a cetylpyridinium chloride extraction method, previously described (Gregory et al., Analytical Biochemistry, 2004, 329: 77-84; Hwang et al., Stem Cells and Development 17: 963-970, 2008). […] Following incubation, 200 μl aliquots were transferred to 96-well format and the absorbance at 550 nm was determined using a microplate spectrophotometer (SpectraMax Plus, Molecular Devices, USA). Data were expressed as mean absorbance at 550 nm±Standard error of mean (SEM). […] Data are shown as mean absorbance at 550 nm and analysed using one-way ANOVA followed by Tukey's multiple comparison post hoc test: n=9; ***, P<0.001. […]

[2] = system: osteoclast-derived tartrate-resistant acid phosphatase form 5b (TRAcP-5b); test: Bone biomarker evaluation: serum TRAcP-5b assay; assay type: in vivo, rat; conditions: oral once a day, 7 consecutive days, female CRL:CD rats
Method: as §1

[3] = target: CHK2 (checkpoint kinase 2) (Homo sapiens, UniProt O96017); test: Inhibitory activity against CHK2; assay type: biochemical
[4] = system: human adipose-derived stem cells (hADSC); test: Osteogenic differentiation and assessment of mineralisation in vitro (Alizarin Red S); assay type: cell-based; conditions: 300 nM; 24 days of cell culture; relative to vehicle control (0.2% DMSO)
Method: as §1

CHK2 (checkpoint kinase 2), sequence (O96017 whole entry, species assumed): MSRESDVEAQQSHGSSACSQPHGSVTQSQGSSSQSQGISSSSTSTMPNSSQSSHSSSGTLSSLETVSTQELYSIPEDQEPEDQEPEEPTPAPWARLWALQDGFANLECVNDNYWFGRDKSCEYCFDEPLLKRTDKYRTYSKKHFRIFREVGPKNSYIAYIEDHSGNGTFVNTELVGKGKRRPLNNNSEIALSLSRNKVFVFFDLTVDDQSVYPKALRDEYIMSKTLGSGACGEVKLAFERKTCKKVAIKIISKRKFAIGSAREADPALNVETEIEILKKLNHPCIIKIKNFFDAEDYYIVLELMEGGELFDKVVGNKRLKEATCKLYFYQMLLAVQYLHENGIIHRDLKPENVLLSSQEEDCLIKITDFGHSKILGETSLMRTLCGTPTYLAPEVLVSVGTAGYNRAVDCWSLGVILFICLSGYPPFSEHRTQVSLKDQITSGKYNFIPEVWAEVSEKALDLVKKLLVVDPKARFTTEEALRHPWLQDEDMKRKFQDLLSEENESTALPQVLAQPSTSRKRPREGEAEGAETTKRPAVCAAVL

**Q.** For `COCCCNCCCc1ccc(-c2cnc(N)c(C(=O)Nc3cccnc3)n2)cc1` [Example 1, 3-Amino-6-(4-{3-[(3-methoxypropyl)amino]propyl}phenyl)-N-pyridin-3-ylpyrazine-2-carboxamide tri-hydrochloride], which “Histopathology, morphology in the femur” value ([1]; 5 mg/kg, 7 or 14 days, vs vehicle) is on record?
**A.** Its value is “no differences in morphology in the femur”.

**Q.** What about the “Focal bone masses in the sub-chondral region” value ([1]; 15 mg/kg, 14 days) of the same molecule?
**A.** The value was 2 out of 10.

**Q.** What about the “Histopathology, bone formation in femur” value ([1]; 15 mg/kg, 14 days) of the same molecule?
**A.** The value was “evidence of bone formation in both the sub-chondral region and cortical region”.

**Q.** What about the “Histopathology, bone marrow” value ([1]; 50 mg/kg, 7 days) of the same molecule?
**A.** The value was “histological evidence of bone marrow cell mobilization and differentiation”.

**Q.** What about the “Histopathology, cancellous bone compartment” value ([1]; 50 mg/kg, 7 days) of the same molecule?
**A.** Its value is “evidence of increased bone within the cancellous bone compartment”.

**Q.** What about the “Histopathology, bone changes in femur” value ([1]; 50 mg/kg, 14 days) of the same molecule?
**A.** The value was “broader range of bone changes suggestive of bone formation”.

**Q.** What about the “Histopathology, osteoblast hypertrophy” value ([1]; 15 and 50 mg/kg, 7 days) of the same molecule?
**A.** The value was “evidence of osteoblast hypertrophy”.

**Q.** And the “Histopathology, osteoid and bone in femur” value ([1]; 15 and 50 mg/kg, 7 days)?
**A.** Its value is “dose related changes of increased osteoid and bone in both the sub-chondral region and in the cortical bone in the shaft”.

**Q.** And the “Increase in right femur metaphysis total BMD compared with vehicle treated rats” value (female CRL:CD rats)?
**A.** The value was 6.6%.

**Q.** What about the “Total BMD in femur (mean±SEM)” value (female CRL:CD rats) of the same molecule?
**A.** The value was 814.41 ± 15 mg/mL.

**Q.** What about the “Serum TRAcP-5b levels (marker of bone resorption)” value [2] of the same molecule?
**A.** Its value is “reduction in serum TRAcP-5b levels”.

**Q.** What about the “Inhibitory activity against CHK2” value [3] of the same molecule?
**A.** The value was “inhibitory activity”.

**Q.** What about the “Alizarin red S staining of mineralised bone nodules” value [4] of the same molecule?
**A.** Its value is “significantly induced progenitor cell commitment and osteoblast differentiation”.
